# Laboratory results taken from PubChem BioAssay (NCI).
#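 The compound was tested at five concentrations on cells cultured in 96-well plates, with a 48-hour exposure period. Here, GI50 denotes the concentration required for 50% inhibition of growth. TGI marks complete inhibition of growth.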
# Experiments:
# Test in all cases: NCI-60 cell line screen, 48 h
# [1] = tested on: 786-0 renal
# [2] = tested on: A498 renal
# [3] = tested on: A549 NSCLC
# [4] = tested on: ACHN renal
# [5] = tested on: BT-549 breast
# [6] = tested on: CAKI-1 renal
# [7] = tested on: COLO 205 colon
# [8] = tested on: DU-145 prostate
# [9] = tested on: EKVX NSCLC
# [10] = tested on: HCC-2998 colon
# [11] = tested on: HCT-116 colon
# [12] = tested on: HCT-15 colon
# [13] = tested on: HOP-62 NSCLC
# [14] = tested on: HOP-92 NSCLC
# [15] = tested on: HS 578T breast
# [16] = tested on: IGROV1 ovarian
# [17] = tested on: LOX IMVI melanoma
# [18] = tested on: M14 melanoma
# [19] = tested on: MALME-3M melanoma
# [20] = tested on: MCF7 breast
# [21] = tested on: MDA-MB-231 breast
# [22] = tested on: MDA-MB-435
# [23] = tested on: MDA-MB-468 breast
# [24] = tested on: NCI-H226 lung
# [25] = tested on: NCI-H23 lung
# [26] = tested on: NCI-H460 lung
# [27] = tested on: NCI-H522 lung
# [28] = tested on: NCI/ADR-RES ovarian
# [29] = tested on: OVCAR-5 ovarian
# [30] = tested on: OVCAR-8 ovarian
# [31] = tested on: PC-3 prostate
# [32] = tested on: RXF 393 renal
# [33] = tested on: SF-295 CNS
# [34] = tested on: SF-539 CNS
# [35] = tested on: SK-MEL-2 melanoma
# [36] = tested on: SK-MEL-28 melanoma
# [37] = tested on: SK-MEL-5 melanoma
# [38] = tested on: SK-OV-3 ovarian
# [39] = tested on: SN12C renal
# [40] = tested on: SNB-19 CNS
# [41] = tested on: SNB-75 CNS
# [42] = tested on: SW-620 colon
# [43] = tested on: T-47D breast
# [44] = tested on: TK-10 renal
# [45] = tested on: U251 CNS
# [46] = tested on: UACC-257 melanoma
# [47] = tested on: UACC-62 melanoma
# [48] = tested on: UO-31 renal
# [49] = tested on: HL-60(TB) leukemia
# [50] = tested on: MOLT-4 leukemia
# [51] = tested on: OVCAR-3 ovarian
# [52] = tested on: OVCAR-4 ovarian
# [53] = tested on: RPMI-8226 leukemia
# [54] = tested on: SF-268 CNS
compound,measurement,setting,value
O=C(CCl)Nc1ccc(C(=O)/C=C/c2cc3ccccc3nc2Cl)cc1,GI50,[1],1.71 µM
same,TGI,[1],3.13 µM
same,GI50,[2],12.7 µM
same,TGI,[2],25.6 µM
same,GI50,[3],1.78 µM
same,TGI,[3],3.48 µM
same,GI50,[4],1.72 µM
same,TGI,[4],3.09 µM
same,GI50,[5],1.21 µM
same,TGI,[5],2.48 µM
same,GI50,[6],1.61 µM
same,TGI,[6],2.98 µM
same,GI50,[7],1.75 µM
same,TGI,[7],3.23 µM
same,GI50,[8],1.76 µM
same,TGI,[8],3.17 µM
same,GI50,[9],1.82 µM
same,TGI,[9],3.52 µM
same,GI50,[10],1.58 µM
same,TGI,[10],2.96 µM
same,GI50,[11],0.175 µM
same,TGI,[11],0.319 µM
same,GI50,[12],1.24 µM
same,TGI,[12],2.61 µM
same,GI50,[13],2.07 µM
same,TGI,[13],3.84 µM
same,GI50,[14],1.89 µM
same,TGI,[14],3.83 µM
same,GI50,[15],1.98 µM
same,TGI,[15],5.22 µM
same,GI50,[16],1.58 µM
same,TGI,[16],3.16 µM
same,GI50,[17],0.221 µM
same,TGI,[17],0.626 µM
same,GI50,[18],1.57 µM
same,TGI,[18],3.04 µM
same,GI50,[19],1.67 µM
same,TGI,[19],3.22 µM
same,GI50,[20],0.294 µM
same,TGI,[20],1.43 µM
same,GI50,[21],1.69 µM
same,TGI,[21],3.07 µM
same,GI50,[22],1.12 µM
same,TGI,[22],2.35 µM
same,GI50,[23],1.47 µM
same,TGI,[23],2.92 µM
same,GI50,[24],1.9 µM
same,TGI,[24],4.82 µM
same,GI50,[25],1.51 µM
same,TGI,[25],2.89 µM
same,GI50,[26],1.72 µM
same,TGI,[26],3.33 µM
same,GI50,[27],1.55 µM
same,TGI,[27],3.02 µM
same,GI50,[28],2.16 µM
same,TGI,[28],4.81 µM
same,GI50,[29],1.8 µM
same,TGI,[29],3.26 µM
same,GI50,[30],1.89 µM
same,TGI,[30],4.08 µM
same,GI50,[31],1.73 µM
same,TGI,[31],3.47 µM
same,GI50,[32],1.56 µM
same,TGI,[32],2.98 µM
same,GI50,[33],1.62 µM
same,TGI,[33],3.07 µM
same,GI50,[34],1.67 µM
same,TGI,[34],3.03 µM
same,GI50,[35],2.14 µM
same,TGI,[35],5.67 µM
same,GI50,[36],1.88 µM
same,TGI,[36],3.66 µM
same,GI50,[37],1.55 µM
same,TGI,[37],2.93 µM
same,GI50,[38],3.63 µM
same,TGI,[38],12.1 µM
same,GI50,[39],1.54 µM
same,TGI,[39],2.89 µM
same,GI50,[40],1.66 µM
same,TGI,[40],3.13 µM
same,GI50,[41],1.29 µM
same,TGI,[41],2.66 µM
same,GI50,[42],0.523 µM
same,TGI,[42],1.83 µM
same,GI50,[43],1.8 µM
same,TGI,[43],3.95 µM
same,GI50,[44],1.95 µM
same,TGI,[44],4.58 µM
same,GI50,[45],1.11 µM
same,TGI,[45],2.35 µM
same,GI50,[46],1.62 µM
same,TGI,[46],3.23 µM
same,GI50,[47],1.53 µM
same,TGI,[47],2.9 µM
same,GI50,[48],1.41 µM
same,TGI,[48],2.71 µM
COc1cc2oc(-c3cccc(C(=O)Nc4cccc([N+](=O)[O-])c4)c3)cc(=O)c2c(OC)c1OC,GI50,[1],3.68 µM
same,TGI,[1],21.7 µM
same,GI50,[2],34.9 µM
same,TGI,[2],> 100 µM
same,GI50,[3],4.94 µM
same,TGI,[3],> 100 µM
same,GI50,[4],3.22 µM
same,TGI,[4],> 100 µM
same,GI50,[5],2.46 µM
same,TGI,[5],8.09 µM
same,GI50,[6],2.86 µM
same,TGI,[6],10.9 µM
same,GI50,[7],> 100 µM
same,TGI,[7],> 100 µM
same,GI50,[8],4.77 µM
same,TGI,[8],> 100 µM
same,GI50,[9],7.32 µM
same,TGI,[9],> 100 µM
same,GI50,[11],3.57 µM
same,TGI,[11],> 100 µM
same,GI50,[12],5.25 µM
same,TGI,[12],> 100 µM
same,GI50,[49],> 100 µM
same,TGI,[49],> 100 µM
same,GI50,[13],6.31 µM
same,TGI,[13],33.6 µM
same,GI50,[14],5.46 µM
same,TGI,[14],42.4 µM
same,GI50,[15],2.51 µM
same,TGI,[15],7.23 µM
same,GI50,[16],7.99 µM
same,TGI,[16],> 100 µM
same,GI50,[17],5.73 µM
same,TGI,[17],> 100 µM
same,GI50,[18],> 100 µM
same,TGI,[18],> 100 µM
same,GI50,[20],3.8 µM
same,TGI,[20],> 100 µM
same,GI50,[21],4.26 µM
same,TGI,[21],> 100 µM
same,GI50,[50],> 100 µM
same,TGI,[50],> 100 µM
same,GI50,[24],2.29 µM
same,TGI,[24],7.38 µM
same,GI50,[25],22.5 µM
same,TGI,[25],> 100 µM
same,GI50,[26],3.87 µM
same,TGI,[26],> 100 µM
same,GI50,[27],3.14 µM
same,TGI,[27],23.2 µM
same,GI50,[51],4.44 µM
same,TGI,[51],> 100 µM
same,GI50,[52],2.72 µM
same,TGI,[52],9.09 µM
same,GI50,[29],> 100 µM
same,TGI,[29],> 100 µM
same,GI50,[31],3.55 µM
same,TGI,[31],> 100 µM
same,GI50,[53],2.88 µM
same,TGI,[53],> 100 µM
same,GI50,[32],2.28 µM
same,TGI,[32],18.8 µM
same,GI50,[54],3.49 µM
same,TGI,[54],> 100 µM
same,GI50,[33],2.51 µM
same,TGI,[33],6.9 µM
same,GI50,[34],4.4 µM
same,TGI,[34],41.7 µM
same,GI50,[35],11.9 µM
same,TGI,[35],> 100 µM
same,GI50,[37],5.17 µM
same,TGI,[37],> 100 µM
same,GI50,[38],4.26 µM
same,TGI,[38],> 100 µM
same,GI50,[39],3.36 µM
same,TGI,[39],> 100 µM
same,GI50,[40],6.91 µM
same,TGI,[40],68.9 µM
same,GI50,[41],1.99 µM
same,TGI,[41],6.08 µM
same,GI50,[43],3.56 µM
same,TGI,[43],> 100 µM
same,GI50,[44],11.5 µM
same,TGI,[44],60.8 µM
same,GI50,[45],6.69 µM
same,TGI,[45],> 100 µM
same,GI50,[47],4.92 µM
same,TGI,[47],> 100 µM
